Experimental data: the Bradley open melting point set (2014)

Structure (SMILES) | melting point [°C]
COC(=O)CCC(=O)OC [Dimethyl succinate] | 19.5
C1CCC1 [cyclobutane] | -90.7
C#CC(C)(O)c1ccccc1 (configuration not stated) [2-phenyl-3-butyn-2-ol] | 49
C[C@@H]1O[C@@H](O)[C@@H](O)[C@H](O)[C@@H]1O [L-fucose] | 139
CCOC(=O)c1ccc(-n2cccc2)cc1 [ethyl 4-(1-pyrrolyl)benzoate] | 75
CO[C@@H]1O[C@H](CO)[C@H](O)[C@H](O)[C@H]1O [methyl beta-d-galactopyranoside] | 177
C/C=C\C(C)C [4-methyl-cis-2-pentene] | -134
ON=C1CCCCC1 [cyclohexanone oxime] | 89
Cc1nc(-c2cccnc2)sc1C(=O)O [4-methyl-2-(3-pyridyl)thiazole-5-carboxylic acid] | 246
Cn1c2c(c3ccccc31)CCCC2 [N-methyl-1,2,3,4-tetrahydrocarbazole] | 53
O=C(O)c1ccc2c(c1)OCO2 [piperonylic acid] | 233
NCCCCCCO [6-amino-1-hexanol] | 57
CCOCC [Diethyl ether] | -116
Nc1cc(Br)cnc1N [5-bromo-2,3-diaminopyridine] | 157
CC(=O)N1CCc2cc(Br)ccc21 [1-acetyl-5-bromoindoline] | 120
CCCCOC(=O)c1ccc(N)cc1 [butyl p-aminobenzoate] | 58
CCCCCCCCCCCCO [Dodecan-1-ol] | 24
CC1(C)CC(=O)c2c(cc3c(c2[Si](C)(C)C)-c2ccccc2OC3)C1 | 143
O=Cc1c(F)c(F)c(F)c(F)c1F [pentafluorobenzaldehyde] | 26
CCC(C)CC [3-methylpentane] | -118
CC(=O)Oc1cccc(-c2ccccc2)c1 [3-acetoxybiphenyl] | 34
CN(C)c1ccc(/N=N/c2ccc(N=C=S)cc2)cc1 [4-dimethylaminoazobenzene-4'-isothiocyanate] | 170
Cc1c(C)c(C)c(C)c(C)c1C [hexamethylbenzene] | 164
COC(=O)c1ccc2c(c1)CC1(CCC(c3ccc(C(C)(C)C)cc3)CC1)C2 (configuration not stated) | 117

Structure (SMILES) | melting point [°C]
O=C(Cl)CCl [chloroacetyl chloride] | -22
O=C1CC(c2cccc(O)c2)Oc2ccccc21 (configuration not stated) [3'-hydroxyflavanone] | 140
O=C(O)CCCc1ccccc1 [4-phenylbutyric acid] | 51
C/C=C/CC [(2E)-Pent-2-ene] | -140
CC(C)CC1=C/C(=C/c2ccc(-c3ccc(Br)cc3)o2)C(=O)O1 | 108
Cc1cc(=O)n(-c2ccccc2)n1C [Antipyrine] | 112
OB(O)c1ccccc1 [benzeneboronic acid] | 217
CCC1(CC)C(=O)NC(=O)N(C)C1=O [metharbital] | 150
CCCCCCCCCCCCCCCCCC(=O)OCC [ethyl stearate] | 35
N#Cc1ccccc1C=O [2-cyanobenzaldehyde] | 104
COc1cc(Cl)cc(OC)c1 [1-chloro-3,5-dimethoxybenzene] | 34
Cc1ccc(/C=C(\Oc2ccccc2)c2nc3ccccc3s2)cc1 | 163
O=S(=O)(Cl)c1ccc(Cl)c(Cl)c1Cl [2,3,4-trichlorobenzenesulfonyl chloride] | 63
CC(C)Cn1cnc2c(N)nc3ccccc3c21 [Imiquimod] | 293
CCN(CC)CCNC(=O)c1cc(Cl)c(N)cc1OC [Metoclopramide] | 147
CCCC1(O)CCC2C3CCC4CC(OC(C)=O)CCC4(C)C3CCC21C (configuration not stated) | 121
COc1cccc(P(c2cccc(OC)c2)c2cccc(OC)c2)c1 [tris(3-methoxyphenyl)phosphine] | 114
CC(CCC(=O)O)C1CCC2C3CCC4CC(=O)CCC4(C)C3CC(O)C12C (configuration not stated) [12-hydroxy-3-oxocholan-24-oic acid] | 108
CSC [Dimethyl sulfide] | -98
COc1ccc(CCN2CCC(Nc3nc4ccccc4n3Cc3ccc(F)cc3)CC2)cc1 [astemizole] | 149
CC(=O)c1cccc(B(O)O)c1 [3-acetylbenzeneboronic acid] | 203
OB(O)c1ccccc1O [2-hydroxybenzeneboronic acid] | 185
N#Cc1ccccc1C=O [o-cyanobenzaldehyde] | 108
CCCN1C(=O)CCC(N2C(=O)c3ccccc3C2=O)C1=O (configuration not stated) [N-Propylthalidomide] | 136

Structure (SMILES) | melting point [°C]
COc1ccccc1/C=C(/C#N)c1nc2ccccc2s1 | 159
OB(O)c1cccc(F)c1 [3-fluorobenzeneboronic acid] | 214
C[C@H]1O[C@@H](O[C@H]2[C@@H](O)C[C@H](O[C@H]3[C@@H](O)C[C@H](O[C@H]4CC[C@@]5(C)[C@H](CC[C@@H]6[C@@H]5CC[C@]5(C)[C@@H](C7=CC(=O)OC7)CC[C@]65O)C4)O[C@@H]3C)O[C@@H]2C)C[C@H](O)[C@@H]1O [Digitoxin] | 256
ClCCCCCl [1,4-dichlorobutane] | -38
Cc1ccccc1N1CCN(CCc2nnc3n2CCCC3)CC1 [dapiprazole] | 158
Cc1nccn1CC1CCc2c(c3ccccc3n2C)C1=O (configuration not stated) [ondansetron] | 231
NS(=O)(=O)c1ccc(Cl)cc1 [4-chlorobenzenesulfonamide] | 146
Oc1cccc(Cl)n1 [2-chloro-6-hydroxypyridine] | 130
Oc1cc(Cl)ccc1Cl [2,5-dichlorophenol] | 57
CC(C)(C)C=O [trimethylacetaldehyde] | 6
OCCCCCCCCCCc1ccccc1 [10-phenyl-1-decanol] | 36
Oc1ccccc1-c1ccccc1 [o-phenylphenol] | 60
CCOC(=O)c1ccc(N)cc1 [ethyl 4-aminobenzoate] | 89
CC(=O)c1ccccc1[N+](=O)[O-] [1-(2-Nitrophenyl)ethanone] | 23
Nc1ccc(-c2ccc3nn(-c4ccccc4)nc3c2)cc1 [4-(2-phenyl-2H-benzotriazol-5-yl)aniline] | 143
COC(=O)c1cc(O)c(O)c(O)c1 [methyl 3,4,5-trihydroxybenzoate] | 201
COc1ccc2[nH]c([S+]([O-])Cc3ncc(C)c(OC)c3C)nc2c1 (configuration not stated) [Omeprazole] | 156
Cc1c(C)c(C#N)c2ccccc2c1C#N [2,3-dimethylnaphthalene-1,4-dicarbonitrile] | 263
CC(=O)CC(C)C [4-methyl-2-pentanone] | -84
COc1ccc2ccccc2c1C=O [2-methoxy-1-naphthaldehyde] | 84
Oc1c(Br)c(Br)c(O)c(Br)c1Br [tetrabromohydroquinone] | 244
Cc1ccccc1CNC(=O)c1ccccc1 [N-(2-methylbenzyl)benzamide] | 118
O=C(O)CCl [Chloroacetic acid] | 63
C=C(Br)CC1(C(C)CC)C(=O)NC(=O)NC1=O (configuration not stated) [butallylonal] | 132
